Data from patent US12097213B2, “Sequential treatment of cancers using 6-thio-dG, checkpoint inhibitors and radiation therapy” (The Board of Regents of the University of Texas System, priority 2020, dated 2024).

Test system: A375 tumor cells
Experiment: A375 tumor model in NSG-SGM3 and humanized NSG-SGM3 mice
Type: in vivo, mouse
Description: FIGS. 13A-F (related to FIGS. 6A-E). (FIGS. 13A-C) 12 weeks after humanized mouse reconstitution, human CD45+ cells and CD3+ T cells in mouse peripheral blood were tested by flow cytometry. (FIG. 13D) Cell viability (IC50) of 6-thio-dG in A375 human melanoma cancer cells. Cells were treated with 6-thio-dG for 4 days. (FIG. 13E) NSG-SGM3 mice (n=5) were inoculated with 2×10^6 A375 tumor cells and treated with 6-thio-dG (3 mg/kg, day 7 and day 8) or anti-PD-L1 plus anti-CTLA-4 (200 μg i.p., day 10 and day 13) or the combination of 6-thio-dG plus anti-PD-L1 and anti-CTLA-4. Tumor growth was measured every 3 days. (FIG. 13F) Humanized NSG-SGM3 mice (n=5-7) were inoculated with 2×10^6 A375 tumor cells and treated with 6-thio-dG (3 mg/kg, day 13 and day 14) or anti-PD-L1 plus anti-CTLA-4 (200 μg i.p., day 16 and day 19) or the combination of 6-thio-dG plus anti-PD-L1 and anti-CTLA-4. Tumor growth was measured every 3 days. Data were shown as mean±SEM. P value was determined by two-tailed unpaired t test (FIGS. 13B and 13C, n.s. p>0.05) or two-way ANOVA (FIG. 13F).
Humanized mouse tumor models. Humanized mouse reconstitution was previously described (Qiao et al., 2019). Briefly, four-week-old NSG-SGM3 female mice were irradiated with 100 cGy (X-ray irradiation with X-RAD 320 irradiator) one day prior to human CD34+ cells transfer. […] Tumor volumes were measured twice a week. […]

Nc1nc2c(ncn2[C@H]2C[C@H](O)[C@@H](CO)O2)c(=S)[nH]1 [6-thio-dG, 6-thio-2′-deoxyguanosine]
tumor growth / tumor burden (humanized NSG-SGM3 mice, 6-thio-dG 3 mg/kg day 13 and 14, anti-PD-L1 plus anti-CTLA-4 200 μg i.p. day 16 and 19): partially delayed tumor growth | tumor growth (immunocompromised NSG-SGM3 mice, 3 mg/kg, day 7 and day 8): did not observe any effect
